Experimental data as given in patent US20230331780A1, “COMPOSITIONS AND METHODS FOR THE TREATMENT OF ALZHEIMER'S DISEASE” (The Trustees of Columbia University in the City of New York, priority 2020, published 2023).

Assays:
[1] = target: T1, CD45 phosphatase (Homo sapiens, UniProt P08575); assay: CD45 phosphatase activity in THP1 cells; assay type: cell-based; conditions: peptide added to THP1 cells; FIG. 2
T1 construct: endogenous in cells; host or cells: THP1 cells
T1 sequence (P08575 26-1306): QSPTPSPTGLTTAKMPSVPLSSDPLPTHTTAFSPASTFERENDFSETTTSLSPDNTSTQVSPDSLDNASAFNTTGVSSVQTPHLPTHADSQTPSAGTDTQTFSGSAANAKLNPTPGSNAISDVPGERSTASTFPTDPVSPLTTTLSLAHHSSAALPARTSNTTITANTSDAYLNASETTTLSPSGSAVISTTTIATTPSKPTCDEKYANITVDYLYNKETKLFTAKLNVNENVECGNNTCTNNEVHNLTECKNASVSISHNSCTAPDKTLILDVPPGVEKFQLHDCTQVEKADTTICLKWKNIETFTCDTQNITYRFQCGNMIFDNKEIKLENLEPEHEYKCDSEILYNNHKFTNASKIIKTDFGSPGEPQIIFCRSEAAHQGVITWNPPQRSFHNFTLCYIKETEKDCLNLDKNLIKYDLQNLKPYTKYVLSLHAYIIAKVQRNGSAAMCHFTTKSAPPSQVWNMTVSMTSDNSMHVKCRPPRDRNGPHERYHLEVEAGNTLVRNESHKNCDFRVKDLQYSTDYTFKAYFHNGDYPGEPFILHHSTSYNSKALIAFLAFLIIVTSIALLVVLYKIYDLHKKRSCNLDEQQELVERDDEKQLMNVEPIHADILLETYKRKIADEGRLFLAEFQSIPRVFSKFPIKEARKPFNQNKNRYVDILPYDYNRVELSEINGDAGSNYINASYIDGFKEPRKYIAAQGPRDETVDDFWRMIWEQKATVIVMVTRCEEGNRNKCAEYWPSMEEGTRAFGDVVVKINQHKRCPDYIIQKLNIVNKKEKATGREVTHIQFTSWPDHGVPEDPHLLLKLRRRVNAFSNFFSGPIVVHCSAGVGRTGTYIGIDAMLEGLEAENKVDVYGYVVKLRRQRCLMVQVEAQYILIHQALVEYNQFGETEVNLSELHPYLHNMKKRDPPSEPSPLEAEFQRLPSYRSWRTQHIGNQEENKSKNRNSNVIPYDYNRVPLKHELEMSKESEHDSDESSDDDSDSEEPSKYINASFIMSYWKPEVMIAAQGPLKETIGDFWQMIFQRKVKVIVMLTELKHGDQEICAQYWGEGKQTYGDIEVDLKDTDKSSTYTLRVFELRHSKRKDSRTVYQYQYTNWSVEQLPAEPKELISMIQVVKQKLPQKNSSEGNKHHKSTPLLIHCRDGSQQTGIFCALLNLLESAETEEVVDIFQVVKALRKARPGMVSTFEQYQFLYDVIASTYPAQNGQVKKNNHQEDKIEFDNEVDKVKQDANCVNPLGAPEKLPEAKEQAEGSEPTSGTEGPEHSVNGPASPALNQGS

[2] = target: T2, interaction between CD33 and CD45 (Homo sapiens, UniProt P08575); assay: proximity ligation assay of CD33-CD45 interaction in THP1 cells; assay type: cell-based; conditions: human myeloid cell line THP1; peptide 0-0.1 mM; FIG. 1
T2 construct: in the human myeloid cell line THP1 using the proximity ligation assay; endogenous in cells; host or cells: THP1 (human myeloid cell line)
T2 sequence (P08575 26-1306): T1 sequence (P08575 26-1306)
From the text: To test if the binding interaction between CD33 and any of its ligands is involved in AD pathogenesis, a 12-mer peptide (RMESKTEKWMER; SEQ ID NO: 1) was designed based on the structure of the sialic-acid binding domain of siglecs (Sialic acid-binding immunoglobulin-type lectins).

[3] = tested on: exogenous Amyloid-beta 1-42 in mouse brain; assay: exogenous amyloid-beta 1-42 clearance in mouse brain, peptide delivered to brain ventricles by osmotic mini pump; assay type: in vivo; conditions: ICV via osmotic mini pump, 10 uM solution, approx. 3 ug/kg daily, 28 days, Amyloid-beta 647, confocal microscopy, FIG. 3A/3B
Procedure: Third, by leveraging an in vivo model of microglia-mediated amyloid uptake in the mouse brain, and using osmotic mini pumps implanted subcutaneously to deliver the peptide through a catheter connected to the brain ventricles, it was shown that the inhibitory peptide SEQ ID NO:1 (peptide #1) reduces the amount of exogenous amyloid-beta 1-42 detectable in the brains of animals (FIG. 3A and FIG. 3B). 10 uM peptide solutions, containing SEQ ID NO: 1 (peptide #1) or SEQ ID NO: 2 (peptide #4), were added to osmotic mini pumps to permit daily delivery of approximately 5 ul of dosing solution or 3 ug/kg of peptide. A fluorescently labelled analog of amyloid beta 1-42 (Amyloid-beta 647) was delivered via ICV infusion. Confocal microscopy was later used to quantify signal in hippocampal sections. […] By the end of the treatment (28 days), brain sections were performed and analyzed by confocal microscope.
Hippocampus areas are shown of the three treated mice (FIG. 3A). Quantification of Amyloid-beta 1-42 in the hippocampus from the three mouse groups are shown with a marked decrease of Amyloid-beta 1-42 in mice that received Peptide #1 but not those that were treated with Peptide #4 (FIG. 3B). […] By the end of the treatment (28 days), brain sections were analyzed by confocal microscope.

[4] = tested on: exogenous Amyloid-beta 1-42 in mouse brain; assay: exogenous amyloid-beta 1-42 clearance in mouse brain, peptide delivered subcutaneously; assay type: in vivo; conditions: peptide subcutaneous via pump, A-beta ICV, 28 days, confocal microscopy, FIG. 4
Procedure: Hippocampus areas are shown of the three treated mice (FIG. 3A). Quantification of Amyloid-beta 1-42 in the hippocampus from the three mouse groups are shown with a marked decrease of Amyloid-beta 1-42 in mice that received Peptide #1 but not those that were treated with Peptide #4 (FIG. 3B). […] The fluorescent labelled A-beta (red) was directly administered to the brain via a mini osmotic pump implanted subcutaneously and connected to the brain ventricles through a catheter for continuous drug delivery. The peptide (SEQ ID NO: 1) was delivered subcutaneously via another pump. By the end of the treatment (28 days), brain sections were analyzed by confocal microscope.

[5] = tested on: endogenous Amyloid-beta 1-42 in 5×FAD mice; assay: endogenous amyloid-beta 1-42 in brains of 5×FAD mice; assay type: in vivo, mouse; conditions: ICV via osmotic mini pump, 28 days, versus vehicle, FIG. 5A/5B
From the text: Fourth, by leveraging a second in vivo model of microglia-mediated amyloid uptake in the mouse brain, and using osmotic mini pumps implanted subcutaneously to deliver the peptide through a catheter connected to the brain ventricles, it was shown that the inhibitory peptide SEQ ID NO:1 (peptide #1) reduces the amount of endogenous amyloid-beta 1-42 detectable in the brains of 5×FAD animals (FIG. 5A and FIG. 5B). 5×FAD mice express human APP and PSEN1 transgenes that include five AD-linked mutations. These mice recapitulate many AD-related phenotypes and have a relatively early and aggressive presentation. Amyloid plaques, accompanied by gliosis, are seen in mice as young as two months of age. Neuron loss occurs in multiple brain regions, beginning at about 6 months in the areas with the most pronounced amyloidosis. Mice display a range of cognitive and motor deficits.
Peptide was directly administered to the brain via a mini osmotic pump implanted subcutaneously and connected to the brain ventricles through a catheter for continuous drug delivery. By the end of the treatment (28 days), brain sections were generated and analyzed by confocal microscope. A representative image from an animal in each of the three groups is shown (FIG. 5A). Quantification of E610 immunoreactivity in the hippocampus, reflective Amyloid-beta 1-42 levels, from the three mouse groups is shown.

[6] = tested on: NeuN positive neurons in Layer 5 of the piriform cortex; assay: neuronal survival in 5×FAD mice given exogenous Amyloid-beta 1-42; assay type: in vivo, mouse; conditions: 5×FAD mice treated with exogenous Amyloid-beta 1-42; ICV via osmotic mini pump, 28 days; FIG. 6
From the text: Fifth, in a modified version of this second in vivo model of Alzheimer's Disease, and using osmotic mini pumps implanted subcutaneously to deliver the peptide through a catheter connected to the brain ventricles, it was shown that the inhibitory peptide SEQ ID NO:1 (peptide #1) reduces neuronal loss in transgenic 5×FAD animals treated with exogenous Amyloid-beta 1-42 (FIG. 6). […] Peptide was directly administered to the brain via a mini osmotic pump implanted subcutaneously and connected to the brain ventricles through a catheter for continuous drug delivery. By the end of the treatment (28 days), brain sections were generated and analyzed by confocal microscope. Quantification of NeuN immunoreactivity in Layer 5 of the piriform cortex, reflective of neuronal number, from the three mouse groups is shown.

MESKTEKWMERI [SEQ ID NO: 2, reference compound]
CD45 phosphatase activity [1]: does not

RMESKTEKWMER [SEQ ID NO: 1]
interaction between CD33 and CD45 (proximity ligation assay) [2]: reduces the interaction between CD33 and CD45 | CD45 phosphatase activity [1]: leads to an increase in CD45 phosphatase activity | amount of exogenous Amyloid-beta 1-42 in hippocampus [3]: decreases the amount of exogenous Amyloid-beta 1-42 in vivo | amount of exogenous Amyloid-beta 1-42 in brain parenchyma [4]: decreases the amount of exogenous Amyloid-beta 1-42 in brain | amount of endogenous Amyloid-beta 1-42 (E610 immunoreactivity in hippocampus) [5]: decreases the amount of endogenous Amyloid-beta 1-42 in vivo | neuronal survival (NeuN immunoreactivity in Layer 5 of the piriform cortex) [6]: increased neuronal survival in vivo
